# Test results published in patent publication US20240368150A1 (Hoffmann-La Roche Inc., priority 2021, published 2024).
# Read-outs that look alike come from different tables or passages of the source.
# Assays:
# [1] = test system: primary human T-cells; assay: Proliferation assay after 5 days (CellTiter-Glo, CD3 stimulation; PBS counter screen); type: cell-based; conditions: CD3 stimulation; for Emax / Emax proliferation (% activation): 5 days, normalized to reference compound A1 as stimulator control = 100%, DMSO neutral control; for Emax: read-out: Emax proliferation (% activation); for EC50: primary human T-cells, CellTiter-Glo after 5 days, EC50 of fitted sigmoidal curve, read-out: Tcell Proliferation CD3 EC50
# How it was run: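 ATP-based luminescence (CellTiter-Glo 2.0, room temperature) measured proliferation 5 days after compound addition to CD3-stimulated or unstimulated primary human T-cells. Flags marked compounds that lowered viability or activated unstimulated cells.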
# [2] = test system: primary human T-cells
SMILES,"Emax ([1]; Homo sapiens, T-cell, 120 h)","EC50 ([1]; Homo sapiens, T-cell, 120 h)",EC50 [2],Emax proliferation (% activation) [1],EC50 [1]
"CC(=O)N[C@H]1CS(=O)(=O)c2cc(F)c(-c3nnn(C4CNCC(F)(F)C4)n3)cc2N(Cc2ccc(Cl)cc2)C1=O (stereo partly drawn) [Example 26, N-[(3R)-5-[(4-chlorophenyl)methyl]-7-[2-(5,5-difluoro-3-piperidyl)tetrazol-5-yl]-8-fluoro-1,1,4-trioxo-2,3-dihydro-1λ^6,5-benzothiazepin-3-yl]acetamide]",64%,6390 nM,> 10000 nM,,
"CC(C)(O)Cn1nnc(-c2cc3c(cc2F)S(=O)(=O)C[C@H](N)C(=O)N3Cc2ccc(Cl)cc2)n1 [Example 27, (3R)-3-amino-5-[(4-chlorophenyl)methyl]-8-fluoro-7-[2-(2-hydroxy-2-methyl-propyl)tetrazol-5-yl]-1,1-dioxo-2,3-dihydro-1λ^6,5-benzothiazepin-4-one]",103%,2050 nM,1230 nM,,
"CC(C)(C)n1nnc(-c2cc3c(cc2F)S(=O)(=O)C[C@H](N)C(=O)N3Cc2ccc(OC(F)(F)F)cc2)n1 [Example 30, (3R)-3-amino-7-(2-tert-butyltetrazol-5-yl)-8-fluoro-1,1-dioxo-5-[[4-(trifluoromethoxy)phenyl]methyl]-2,3-dihydro-1λ^6,5-benzothiazepin-4-one]",117%,43.5 nM,39.8 nM,,
"CC(C)(C)n1nnc(-c2ccc3c(c2)N(Cc2ccc(OC(F)(F)F)cc2)C(=O)[C@@H](N)CS3(=O)=O)n1 [Example 31, (3R)-3-amino-7-(2-tert-butyltetrazol-5-yl)-1,1-dioxo-5-[[4-(trifluoromethoxy)phenyl]methyl]-2,3-dihydro-1λ^6,5-benzothiazepin-4-one]",97%,276 nM,344 nM,,
CC(C)(C)n1nnc(-c2cc3c(cc2F)S(=O)(=O)C[C@H](N)C(=O)N3Cc2ccc(F)cc2)n1 [Example 32],101%,808 nM,7630 nM,,
"CC(C)(C)n1nnc(-c2cc3c(cc2F)S(=O)(=O)C[C@H](N)C(=O)N3Cc2ccc(OCC3CCOCC3)cc2)n1 [Example 33, (3R)-3-amino-7-(2-tert-butyltetrazol-5-yl)-8-fluoro-1,1-dioxo-5-[[4-(tetrahydropyran-4-ylmethoxy)phenyl]methyl]-2,3-dihydro-1λ^6,5-benzothiazepin-4-one]",104%,1900 nM,5280 nM,,
"CC(C)(C)n1nnc(-c2cc3c(cc2F)[S+]([O-])C[C@H](N)C(=O)N3Cc2ccc(Cl)cc2)n1 (stereo partly drawn) [Example 34, (3R)-3-amino-7-(2-tert-butyltetrazol-5-yl)-5-[(4-chlorophenyl)methyl]-8-fluoro-1-oxo-2,3-dihydro-1λ^4,5-benzothiazepin-4-one]",,,5870 nM,100 % activation,2800 nM
"CC(C)(C)n1nnc(-c2cc3c(cc2F)[S+]([O-])C[C@H](N)C(=O)N3Cc2ccc(Cl)cc2)n1 (stereo partly drawn) [Example 35, (3R)-3-amino-7-(2-tert-butyltetrazol-5-yl)-5-[(4-chlorophenyl)methyl]-8-fluoro-1-oxo-2,3-dihydro-1λ^4,5-benzothiazepin-4-one]",,,7130 nM,125 % activation,1240 nM
"N[C@H]1CS(=O)(=O)c2cc(F)c(-c3ccn[nH]3)cc2N(Cc2ccc(Cl)cc2)C1=O [Example 37, (3R)-3-amino-5-[(4-chlorophenyl)methyl]-8-fluoro-1,1-dioxo-7-(1H-pyrazol-5-yl)-2,3-dihydro-1λ^6,5-benzothiazepin-4-one]",57%,15300 nM,> 20000 nM,,
"CCc1nc(-c2cc3c(cc2F)S(=O)(=O)C[C@H](N)C(=O)N3Cc2ccc(Cl)cc2)n[nH]1 [Example 38, (3R)-3-amino-5-[(4-chlorophenyl)methyl]-7-(5-ethyl-1H-1,2,4-triazol-3-yl)-8-fluoro-1,1-dioxo-2,3-dihydro-1λ^6,5-benzothiazepin-4-one]",50%,> 20000 nM,> 20000 nM,,
"N[C@H]1CS(=O)(=O)c2ccc(-c3nc(CC(F)(F)F)no3)nc2N(Cc2ccc(Cl)cc2)C1=O [Example 39, (3R)-3-amino-5-[(4-chlorophenyl)methyl]-1,1-dioxo-7-[3-(2,2,2-trifluoroethyl)-1,2,4-oxadiazol-5-yl]-2,3-dihydropyrido[3,2-b][1,4]thiazepin-4-one]",161%,486 nM,842 nM,,
"CC(C)(F)c1nc(-c2cc3c(cc2F)S(=O)(=O)C[C@H](N)C(=O)N3Cc2ccc(Cl)cc2)no1 [Example 47, (3R)-3-amino-5-[(4-chlorophenyl)methyl]-8-fluoro-7-[5-(1-fluoro-1-methyl-ethyl)-1,2,4-oxadiazol-3-yl]-1,1-dioxo-2,3-dihydro-1λ^6,5-benzothiazepin-4-one]",142%,561 nM,2860 nM,,
"CC(C)(C)c1cc(-c2cc3c(cc2F)S(=O)(=O)C[C@H](N)C(=O)N3Cc2ccc(Cl)cc2)on1 [Example 52, (3R)-3-amino-7-(3-tert-butylisoxazol-5-yl)-5-[(4-chlorophenyl)methyl]-8-fluoro-1,1-dioxo-2,3-dihydro-1λ^6,5-benzothiazepin-4-one]",133%,1090 nM,974 nM,,
"N[C@H]1CS(=O)(=O)c2cc(F)c(-c3nnc(C4CCCCC4(F)F)o3)cc2N(Cc2ccc(OC(F)(F)F)cc2)C1=O (stereo partly drawn) [Example 53, (3R)-3-amino-7-[5-(2,2-difluorocyclohexyl)-1,3,4-oxadiazol-2-yl]-8-fluoro-1,1-dioxo-5-[[4-(trifluoromethoxy)phenyl]methyl]-2,3-dihydro-1λ^6,5-benzothiazepin-4-one]",243%,< 162 nM,< 162 nM,,
"N[C@H]1CS(=O)(=O)c2cc(F)c(-c3nnc(C4CCCC(F)(F)C4)o3)cc2N(Cc2ccc(OC(F)(F)F)cc2)C1=O (stereo partly drawn) [Example 55, (3R)-3-Amino-7-[5-(3,3-difluorocyclohexyl)-1,3,4-oxadiazol-2-yl]-8-fluoro-1,1-dioxo-5-[[4-(trifluoromethoxy)phenyl]methyl]-2,3-dihydro-1λ^6,5-benzothiazepin-4-one]",282%,50.7 nM,53.2 nM,,
"NC(c1nnc(-c2cc3c(cc2F)S(=O)(=O)C[C@H](N)C(=O)N3Cc2ccc(OC(F)(F)F)cc2)o1)C(F)(F)F (stereo partly drawn) [Example 58, (3R)-3-amino-7-[5-(1-amino-2,2,2-trifluoro-ethyl)-1,3,4-oxadiazol-2-yl]-8-fluoro-1,1-dioxo-5-[[4-(trifluoromethoxy)phenyl]methyl]-2,3-dihydro-1λ^6,5-benzothiazepin-4-one]",126%,684 nM,220 nM,,
CC(C)(C#N)c1nnc(-c2cc3c(cc2F)S(=O)(=O)C[C@H](N)C(=O)N3Cc2ccc(OC(F)(F)F)cc2)o1 [Example 59],94%,54.5 nM,79.9 nM,,
"Cc1nnc(-c2nnc(-c3cc4c(cc3F)S(=O)(=O)C[C@H](N)C(=O)N4Cc3ccc(OC(F)(F)F)cc3)o2)o1 [Example 60, (3R)-3-amino-8-fluoro-7-[5-(5-methyl-1,3,4-oxadiazol-2-yl)-1,3,4-oxadiazol-2-yl]-1,1-dioxo-5-[[4-(trifluoromethoxy)phenyl]methyl]-2,3-dihydro-1λ^6,5-benzothiazepin-4-one]",110%,320 nM,535 nM,,
"CN[C@@H](C)C(=O)N[C@H]1CS(=O)(=O)c2cc(F)c(-c3nnc(CC(F)(F)F)o3)cc2N(Cc2ccc(OC(F)(F)F)cc2)C1=O [Example 61, (2S)—N-[(3R)-8-fluoro-1,1,4-trioxo-7-[5-(2,2,2-trifluoroethyl)-1,3,4-oxadiazol-2-yl]-5-[[4-(trifluoromethoxy)phenyl]methyl]-2,3-dihydro-1λ^6,5-benzothiazepin-3-yl]-2-(methylamino)propanamide]",144%,625 nM,1910 nM,,
"CC(C)(CN1CCCC1=O)c1nnc(-c2cc3c(cc2F)S(=O)(=O)C[C@H](N)C(=O)N3Cc2ccc(Cl)cc2)o1 [Example 64, (3R)-3-amino-5-[(4-chlorophenyl)methyl]-7-[5-[1,1-dimethyl-2-(2-oxopyrrolidin-1-yl)ethyl]-1,3,4-oxadiazol-2-yl]-8-fluoro-1,1-dioxo-2,3-dihydro-1λ^6,5-benzothiazepin-4-one]",36%,> 10000 nM,4350 nM,,
"N[C@H]1CS(=O)(=O)c2cc(F)c(-c3nnc(C4(CO)CC4)o3)cc2N(Cc2ccc(Cl)cc2)C1=O [Example 65, (3R)-3-amino-5-[(4-chlorophenyl)methyl]-8-fluoro-7-[5-[1-(hydroxymethyl)cyclopropyl]-1,3,4-oxadiazol-2-yl]-1,1-dioxo-2,3-dihydro-1λ^6,5-benzothiazepin-4-one]",77%,1060 nM,3850 nM,,
"CC(C)(CN1CCCCC1=O)c1nnc(-c2cc3c(cc2F)S(=O)(=O)C[C@H](N)C(=O)N3Cc2ccc(Cl)cc2)o1 [Example 66, (3R)-3-amino-5-[(4-chlorophenyl)methyl]-7-[5-[1,1-dimethyl-2-(2-oxo-1-piperidyl)ethyl]-1,3,4-oxadiazol-2-yl]-8-fluoro-1,1-dioxo-2,3-dihydro-1λ^6,5-benzothiazepin-4-one]",112%,2070 nM,1330 nM,,
"N[C@H]1CS(=O)(=O)c2cc(F)c(-c3nnc(CCC(F)(F)F)o3)cc2N(Cc2ccc(Cl)cc2)C1=O [Example 67, (3R)-3-Amino-5-[(4-chlorophenyl)methyl]-8-fluoro-1,1-dioxo-7-[5-(3,3,3-trifluoropropyl)-1,3,4-oxadiazol-2-yl]-2,3-dihydro-1λ^6,5-benzothiazepin-4-one]",165%,112 nM,199 nM,,
